Measured values reported in patent US20260219279A1, “IMPROVED HIGH-THROUGHPUT HYDROGEN-DEUTERIUM EXCHANGE-MASS SPECTROMETRY SYSTEM AND METHOD” (THE BOARD OF REGENTS OF THE UNIVERSITY OF OKLAHOMA, priority 2023, published 2026).

How the values were obtained:
[1] = biological target: T1, alkyl hydroperoxide reductase C (Escherichia coli, UniProt P0AE08); experiment: Differential PTD-HDX-MS in 60° C.-depleted E. coli cell lysate; assay type: binding; conditions: 60° C.-PTD sample
T1 construct: endogenous in cells; host or cells: E. coli cell lysate
Experimental: (§1) Samples were prepared in triplicate.
(§2) The flowrate was controlled at 150 μL/min.
(§3) The decoy database was automatically generated in MSGF+ software.

[2] = biological target: T2, 60 kDa chaperonin (Escherichia coli, UniProt P0A6F5); experiment: as above; assay type: binding; conditions: 60° C.-PTD sample
T2 construct: endogenous in cells; host or cells: E. coli cell lysate
Experimental: as §1, §2, §3

T1 sequence (P0AE08 2-187): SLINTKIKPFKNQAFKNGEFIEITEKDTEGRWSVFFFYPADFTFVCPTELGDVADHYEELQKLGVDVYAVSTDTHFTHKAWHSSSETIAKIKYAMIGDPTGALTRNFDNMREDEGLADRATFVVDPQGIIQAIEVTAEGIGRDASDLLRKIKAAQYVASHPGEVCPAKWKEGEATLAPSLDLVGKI
T2 sequence (P0A6F5 2-548): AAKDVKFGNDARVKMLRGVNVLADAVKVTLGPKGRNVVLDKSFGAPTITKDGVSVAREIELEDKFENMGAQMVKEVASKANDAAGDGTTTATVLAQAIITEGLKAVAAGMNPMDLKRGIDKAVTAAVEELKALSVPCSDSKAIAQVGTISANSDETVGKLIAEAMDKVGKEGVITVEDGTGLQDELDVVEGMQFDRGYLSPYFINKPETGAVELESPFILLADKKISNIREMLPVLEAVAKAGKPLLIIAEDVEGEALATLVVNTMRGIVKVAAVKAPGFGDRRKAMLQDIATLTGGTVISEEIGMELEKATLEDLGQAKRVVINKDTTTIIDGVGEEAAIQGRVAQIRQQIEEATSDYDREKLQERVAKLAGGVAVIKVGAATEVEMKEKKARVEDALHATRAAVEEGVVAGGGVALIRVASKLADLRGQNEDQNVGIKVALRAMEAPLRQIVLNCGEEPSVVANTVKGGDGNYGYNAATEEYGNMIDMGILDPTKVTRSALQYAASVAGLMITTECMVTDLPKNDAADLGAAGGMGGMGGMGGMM

CC(=O)Nc1nnc(S(N)(=O)=O)s1 [AZM, Acetazolamide]
deuterium uptake difference of characterized peptides following AZM treatment [1]: no significant differences | deuterium uptake difference of characterized peptides following AZM treatment [2]: no significant differences
